Source: patent publication US4067996A, “Phenylacetic acid derivatives” (Synthelabo, priority 1974, dated 1978)
Where two headings read alike, the source gives them in different places.

Assays:
[1] = Acute toxicity in mice on oral administration; format: in vivo; conditions: mouse, in vivo, read-out: LD 50 (acute toxicity)
Experimental: (§1) The acute toxicity was studied by oral administration to CDl mice of both sexes. The 50% lethal doses (LD 50) were determined graphically.
(§2) In a second series of experiments, the experimental technique was modified slightly: the compounds studied are dispersed in olive oil instead of being dissolved in water.

[2] = tested on: triglycerides in the serum; test: Hypolipaemic activity (triglycerides) in rats on oral administration (7 days); format: in vivo, male albino rats of the CDl race (Charles River); conditions: daily for 7 days
Experimental: (§3) The reference substances chosen were clofibrate or ethyl 2-p-chlorophenoxy-2-methyl-propionate, and halofenate or 2-acetamido-ethyl2-p-chlorophenyl-2-m-trifluoromethylphenoxy-acetate.
(§4) The hypocholesterolaemic action was determined on male albino rats of the CDl race (Charles River) weighing on average 250 g and fed normally, the rats being divided into batches each of 10 animals. Daily doses of one of the compounds studied were administered orally for 7 days. On the 8th day, the contents of cholesterol and triglycerides in the blood were determined and compared with those of animals of the untreated comparison group. In this way it was possible graphically to evaluate, for each compound, the 30% active dose (AD 30), that is to say the daily dose which causes a 30% reduction in the content of cholesterol or of triglycerides in the serum.
(§5) *AD 30 = daily dose which causes a 30% reduction in the content of
as §2

[3] = tested on: cholesterol in the serum; test: Hypocholesterolaemic action in rats on oral administration (7 days); format: in vivo, male albino rats of the CDl race (Charles River); conditions: daily for 7 days
Experimental: as §3, §4, §5, §2

[4] = tested on: CDl mice; test: Acute toxicity in mice on oral administration; format: in vivo; conditions: Table III, second series, dispersed in olive oil
Experimental: as §1, §2

[5] = tested on: content of lipids (triglycerides and cholesterol) in the blood; test: Hypolipaemic and hypocholesterolaemic effect compared with reference substances (summary); format: in vivo, rats
Experimental: as §3, §4, §2

[6] = Table II, first series (dissolved in water)
[7] = Table III, second series, dispersed in olive oil

Row | Compound | LD50 ([1]; Table II, first series) [mg/kg] | AD 30, triglycerides (daily dose which causes a 30% reduction in serum triglycerides) [2, 6] [mg/kg] | AD 30, cholesterol (daily dose which causes a 30% reduction in serum cholesterol) [3, 6] [mg/kg] | LD 50 (acute toxicity) [4] | AD 30, triglycerides (daily dose which causes a 30% reduction in serum triglycerides) [2, 7] [mg/kg] | AD 30, cholesterol (daily dose which causes a 30% reduction in serum cholesterol) [3, 7] [mg/kg] | times more active than clofibrate ([5]; relative to clofibrate) | times more active than halofenate ([5]; relative to halofenate) | LD50 [1, 7] [mg/kg]
1 | CCOC(=O)C(C)(C)Oc1ccc(Cl)cc1 [Clofibrate, ethyl 2-p-chlorophenoxy-2-methyl-propionate, reference compound] | 1300 | 200 | 160 |  |  |  |  |  | 
2 | CC(=O)NCCOC(=O)C(Oc1cccc(C(F)(F)F)c1)c1ccc(Cl)cc1 (centres unmarked) [Halofenate, 2-acetamido-ethyl2-p-chlorophenyl-2-m-trifluoromethylphenoxy-acetate, reference compound] | 1800 | 50 | 70 |  |  |  |  |  | 
3 | CC(=O)NCCOC(=O)C(Oc1ccc(F)c(C(F)(F)F)c1)c1ccc(Cl)cc1 (centres unmarked) [SL C 149, 2-Acetylamino-ethyl 2-(4-chloro-phenyl)-2-(4-fluoro-3-trifluoromethyl-phenoxy)-acetate] | 2000 | 12 | 17 | 2,000 mg/kg | 20 | 30 | about 15 times | four | 
4 | CCOC(=O)C(Oc1ccc(F)c(C(F)(F)F)c1)c1ccc(Cl)cc1 (centres unmarked) [SL C 150, Ethyl 2-(4-chloro-phenyl)-2-(4-fluoro-3-trifluoromethyl-phenoxy)-acetate] | > 2500 | 25 | 20 |  |  |  |  |  | 
5 | O=C(O)C(Oc1ccc(F)c(C(F)(F)F)c1)c1ccc(Cl)cc1 (centres unmarked) [SL C 151, 2-(4-Chloro-phenyl)-2-(4-fluoro-3-trifluoromethyl-phenoxy)-acetic acid] | 2000 | 12 | 50 |  |  |  |  |  | 
6 | NC(=O)C(Oc1ccc(F)c(C(F)(F)F)c1)c1ccc(Cl)cc1 (centres unmarked) [SL D 063] | > 2000 | 20 | > 100 |  |  |  |  |  | 
7 | O=C(NCCO)C(Oc1ccc(F)c(C(F)(F)F)c1)c1ccc(Cl)cc1 (centres unmarked) [SL D 064, 2-(4-Fluoro-3-trifluoromethyl-phenoxy)-2-(4-chloro-phenyl)-N-(2-hydroxy-ethyl)-acetamide] | > 2000 | 20 | > 100 |  |  |  |  |  | 
8 | O=C(OCc1cccnc1)C(Oc1ccc(F)c(C(F)(F)F)c1)c1ccc(Cl)cc1 (centres unmarked) [SL D 065] | > 2000 | 35 | 55 |  |  |  |  |  | 
9 | CC(=O)NCCOC(=O)C(Oc1ccc(F)c(C(F)(F)F)c1)c1ccc(F)cc1 (centres unmarked) [SL D 097, 2-acetylamino-ethyl 2-(4-fluoro-3-trifluoromethyl-phenoxy)-2-(4-fluoro-phenyl)acetate] | > 2000 | 25 | > 100 |  |  |  |  |  | 
10 | CN1CCC(OC(=O)C(Oc2ccc(F)c(C(F)(F)F)c2)c2ccc(Cl)cc2)CC1 (centres unmarked) [SL-D.123, 1-Methyl-piperidinyl-4 2-(4-fluoro-3-trifluoromethyl-phenoxy)-2-(4-chloro-phenyl)-acetate] |  |  |  |  | 20 | 50 |  |  | > 2000
11 | CN(C)C(=O)CCCOC(=O)C(Oc1ccc(F)c(C(F)(F)F)c1)c1ccc(Cl)cc1 (centres unmarked) [SL-D.126, N,N-Dimethyl-3-aminocarbonyl-propyl 2-(4-fluoro-3-trifluoromethyl-phenoxy)-2-(4-chloro-phenyl)-acetate] |  |  |  |  | 20 | 70 |  |  | > 2000
12 | CC1CC(OC(=O)C(Oc2ccc(F)c(C(F)(F)F)c2)c2ccc(Cl)cc2)CC(C)(C)C1 (centres unmarked) [SL-D.128, 3,3,5-Trimethyl-cyclohexyl-1 2-(4-fluoro-3-trifluoromethyl-phenoxy)-2-(4-chloro-phenyl)-acetate] |  |  |  |  | 10 | 80 |  |  | > 2000
